Experimental data: patent US20060258697A1, “Method of augmenting the antitumor activity of anticancer agents” (priority 2003, published 2006)
Read-outs that look alike come from different tables or passages of the source.

Legend:
in vivo [1] = conditions: nude, mouse
[2] = tested on: A253 squamous cell carcinoma of the head and neck xenografts; assay: Cure rate / antitumor activity in nude mice bearing A253 head and neck xenografts; format: in vivo
Protocol: (§1) 5-Methylselenocysteine (MSC). Two schedules were evaluated: 1) in combination with irinotecan, MSC (0.2 mg/mouse/d×28) was administered orally for 28 days with the first dose administered daily for seven days prior to the weekly drug administration and 2) in combination with other drugs, MSC was administered orally (0.2 mg/mouse/d×14) daily for 14 days with the first dose administered daily for seven days prior to the single i.v. administration of taxol, CDDP, Dox, taxotere and cyclophosphamide.
(§2) Anticancer drug administration. The anticancer drugs administration schedule was as follows. • i. Irinotecan (CPT-11), weekly i.v. push for four (4) weeks, • ii. Taxol, single i.v. push, • iii. Cisplatin (CDDP), single i.v. push. • iv. Doxorubin (Dox), single i.v. push. • v. Cyclophosphamide, single i.v. push. • vi. Oxaliplatin, single i.v. push • vii. Taxotere, single i.v. push
(§3) Tumor Xenografts. […] The following tumor xenografts were established. • i. HCT-8: poorly-differentiated colon carcinoma, expressing wild type p53 • ii. HT-29: well-differentiated colon carcinoma expressing mutant p53 • iii. A253: well-differentiated squamous cell carcinoma of the head and neck (SCCHN) expressing no p53 • iv. FaDu: poorly-differentiated squamous cell carcinoma of the head and neck (SCCHN) expressing mutant p53
This example describes the comparative antitumor activity of MSC and SLM in combination with the maximum tolerated dose of irinotecan. […] As an illustration, MSC and SLM were used in combination with irinotecan. The results, shown in FIG. 3, represent a comparative evaluation of the effect of MSC and SLM (0.2 mg/mouse/d×28) on the antitumor activity of irinotecan (100 mg/kg/wk×4).
To determine whether therapeutic synergy achieved with irinotecan in xenografts is specific for MSC, the antitumor activity of irinotecan with and without two selenium-containing compounds, MSC and SLM were compared in xenografts bearing A253 (SCCHN) tumors for the […] (200 mg/kg/wk×4). The data compare the antitumor activity of MSC with SLM in combination with irinotecan (200 mg/kg/wk×4).
(§4) This example describes the modulation of the antitumor activity of anticancer drugs by MSC in mice bearing human tumors. […] To determine whether modulation of the therapeutic efficacy and cure of irinotecan by MSC is drug specific, the antitumor activity of drugs, representing different classes and mechanisms of action were evaluated alone and in combination with non-toxic doses and schedules of MSC (0.2 mg/mouse/d×14) in xenografts bearing human A253 and FaDu (SCCHN) tumors (FIG. 5). The data in FIG. 5 represent the use of the MTD doses of cisplatin (8 mg/kg×1), cyclophosphamide (100 mg/kg×1), taxol (35 mg/kg ×1.) and doxorubicin (10 mg/kg×1).

in vivo [3] = conditions: rat
[4] = tested on: FaDu squamous cell carcinoma of the head and neck xenografts; assay: Cure rate / antitumor activity in nude mice bearing FaDu head and neck xenografts; format: in vivo; conditions: for PR (%) (partial tumor regression, >50% tumor reduction) / CR (%) (complete tumor regression): Table 3 first column pair (head printed 'FaUra'), drug dose mg/kg and MSC mg/mouse/day in parentheses of Treatment; for CR (%) (complete tumor regression): schedules per footnote; for % CR of Surviving Animals FaDu: without or with MSC 0.2 mg/mouse/d
Protocol: as §1, §2
Tumor Xenografts. […] The following tumor xenografts were established. • i. HCT-8: poorly-differentiated colon carcinoma, expressing wild type p53 • ii. HT-29: well-differentiated colon carcinoma expressing mutant p53 • iii. A253: well-differentiated squamous cell carcinoma of the head and neck (SCCHN) expressing no p53 • iv. FaDu: poorly-differentiated squamous cell carcinoma of the head and neck (SCCHN) expressing mutant p53 […]
as §4
In mice, MSC was orally administered at 0.2 mg/mouse/d with the first daily dose administered seven days prior to single i.v. administration of drug and continuous for additional seven days for a total MSC treatment of 14 days.

HCT-8 colon xenografts = assay: Cure rate / antitumor activity in nude mice bearing HCT-8 colon xenografts; format: in vivo; conditions: for HCT-8 CR (%) / HCT-8 PR (%): drug 100 mg/kg/week i.v. × 4, MSC 0.2 mg/day/mouse p.o. 42 days started 21 days before drug; for % CR of Surviving Animals HCT-8: without or with MSC 0.2 mg/mouse/d
Protocol: as §1, §2, §3
(§5) This example describes the evaluation of the effect of selenium containing compounds on the antitumor activity of irinotecan. […] Irinotecan was administered at 100 mg/kg/wk for 4 weeks (MTD) and 200 mg/kg/wk for 4 weeks (toxic) alone and in combination with 0.2 mg/mouse/d of MSC for 28 days to nude mice bearing HCT-8 colon xenografts.
For these experiments, FUra was administered by i.v. push weekly times 4 and MSC by p.o. once a day for 6 weeks, the first dose being given 3 weeks before FUra administration. Irinotecan was administered by i.v. 100 mg/kg/week once a week for 4 weeks and MSC (0.2 mg/day), by p.o. daily for 28 days with the first dose started 7 days prior to irinotecan treatment.

HT-29 colon xenografts = assay: Cure rate / antitumor activity in nude mice bearing HT-29 colon xenografts; format: in vivo; conditions: for HT-29 CR (%) / HT-29 PR (%): drug 100 mg/kg/week i.v. × 4, MSC 0.2 mg/day/mouse p.o. 42 days started 21 days before drug; for % CR of Surviving Animals HT-29: without or with MSC 0.2 mg/mouse/d
nude mice [5] = conditions: taxotere 100 mg/kg single i.v.
Protocol: Taxotere was administered to nude mice at non-toxic (60 mg/kg) or toxic (100 mg/kg) dose by a single i.v. injection and MSC was administered by oral route daily for 14 days with the first dose of MSC started before taxotere treatment.

nude mice [6] = assay: Irinotecan lethality / survival with and without selenium compound; format: in vivo; conditions: for Survivor (%): without or with MSC 0.2 mg/mouse/d × 28 p.o.
Protocol: as §5, with “xenografts. […] Thus, MSC potentiates the efficacy of irinotecan by increasing cure rate and by decreasing toxicity.” for “xenografts.”
Nude mice (5 mice/group; experiment repeated ≧3 times) were treated with 0.2 mg/mouse/day of SLM (data replicated with MSC) for 21, 7, 3, 1, or 0 days prior to initiation of weekly IV irinotecan at 2 ×the MTD (at 200mg/kg/week×4). […] 3 days pre-treatment was associated with 80% survivorship while 0-1 days were associated with 60% (45% survivorship for irinotecan alone) (FIG. 13). Thus, the optimal duration of pre-treatment with SLM 0.2mg/mouse/day for maximum protection against irinotecan lethality was identified to be at least 1 week.

[7] = Table 3 (A253), drug dose mg/kg and MSC mg/mouse/day in parentheses of Treatment

SMILES | MTD (in vivo [1]) [mg/kg] | CR (%) (complete tumor regression) [2, 7] | PR (%) (partial tumor regression, >50% tumor reduction) [2, 7] | MTD (in vivo [3]) [mg/kg] | PR (%) (partial tumor regression, >50% tumor reduction) [4] | CR (%) (complete tumor regression) [4] | HCT-8 CR (%) (HCT-8 colon xenografts) | HCT-8 PR (%) (HCT-8 colon xenografts) | HT-29 CR (%) (HT-29 colon xenografts) | HT-29 PR (%) (HT-29 colon xenografts) | also measured
CC(=O)O[C@H]1C(=O)[C@@]2(C)[C@H]([C@H](OC(=O)c3ccccc3)[C@]3(O)C[C@H](OC(=O)[C@H](O)[C@@H](NC(=O)c4ccccc4)c4ccccc4)C(C)=C1C3(C)C)[C@]1(OC(C)=O)CO[C@@H]1C[C@@H]2O [Taxol] | 35 | 0 | 0 | 50 | 0 | 0 |  |  |  |  | 
O=c1[nH]cc(F)c(=O)[nH]1 [FUra] |  | 0 | 0 |  |  | 0 | 0 | 0 | 0 | 0 | 
COc1cccc2c1C(=O)c1c(O)c3c(c(O)c1C2=O)C[C@@](O)(C(=O)CO)C[C@@H]3O[C@H]1C[C@H](N)[C@H](O)[C@H](C)O1 [Doxorubicin, doxorubicin] |  | 0 | 60 | 6 | 0 | 0 |  |  |  |  | MTD (mg/kg) Mice (Mice; nude, mouse, in vivo): 10 mg/kg
CC(=O)O[C@@]12CO[C@@H]1C[C@H](O)[C@@]1(C)C(=O)[C@H](O)C3=C(C)[C@@H](OC(=O)[C@H](O)[C@@H](NC(=O)OC(C)(C)C)c4ccccc4)C[C@@](O)([C@@H](OC(=O)c4ccccc4)[C@H]21)C3(C)C [Taxotere] | 60 |  |  |  | 40 | 0 |  |  |  |  | lethality (nude mice [5]): 40%; CR (%) (complete tumor regression) [2]: 0%; PR (%) (partial tumor regression, >50% tumor reduction) [2]: 20%; animals cured of their tumors ([2]; A253, taxotere 60 mg/kg single i.v., alone or with MSC 0.2 mg/mouse/d × 14): insensitive; animals cured of their tumors ([4]; FaDu, taxotere 60 mg/kg single i.v., alone or with MSC 0.2 mg/mouse/d × 14): insensitive
CCc1c2c(nc3ccc(OC(=O)N4CCC(N5CCCCC5)CC4)cc13)-c1cc3c(c(=O)n1C2)COC(=O)[C@]3(O)CC [Irinotecan, irinotecan] |  | 10 | 30 |  | 50 | 30 | 20 | 20 | 0 | 0 | maximum tolerated weekly dose (Mice; weekly i.v. for 4 weeks, nude mice): 100 mg/kg/wk; Survivor (%) (nude mice [6]; irinotecan 100 mg/kg/wk × 4 i.v.): 100%; survivorship (nude mice [6]; irinotecan 200 mg/kg/week × 4 alone (Example 8)): 45%; Survivor (%) (nude mice [6]; irinotecan 200 mg/kg/wk × 4 i.v.): 50%; lethality (nude mice [6]; irinotecan 300 mg/kg/wk × 4, alone or with MSC): 100%; Survivor (%) (nude mice [6]; irinotecan 300 mg/kg/wk × 4 i.v.): 0%; % CR of Surviving Animals HCT-8 (HCT-8 colon xenografts; irinotecan 100 mg/kg/wk × 4): 20%; % CR of Surviving Animals HCT-8 (HCT-8 colon xenografts; irinotecan 200 mg/kg/wk × 4): 30%; % CR of Surviving Animals HT-29 (HT-29 colon xenografts; irinotecan 100 mg/kg/wk × 4): 0%; % CR of Surviving Animals HT-29 (HT-29 colon xenografts; irinotecan 200 mg/kg/wk × 4): 10%; % CR of Surviving Animals A253 ([2]; irinotecan 100 mg/kg/wk × 4, without or with MSC 0.2 mg/mouse/d): 20%; % CR of Surviving Animals A253 ([2]; irinotecan 200 mg/kg/wk × 4, without or with MSC or SLM 0.2 mg/mouse/d): 40%; % CR of Surviving Animals FaDu ([4]; irinotecan 100 mg/kg/wk × 4): 30%; % CR of Surviving Animals FaDu ([4]; irinotecan 200 mg/kg/wk × 4): 50%
CC[C@@]1(O)C(=O)OCc2c1cc1n(c2=O)Cc2cc3c(CN(C)C)c(O)ccc3nc2-1 [Topotecan, topotecan] |  | 0 | 0 |  | 0 | 0 |  |  |  |  | 
